Patent US20220089602A1, “COMPOUNDS THAT INDUCE FERROPTIC CELL DEATH” (The Board of Trustees of the University of Illinois, priority 2019, published 2022)
pIC50: −log10 of the molar value. “Also recorded” adds a separate entry of the source.

What was measured:
[1] = test system: E. coli; assay: Antibacterial activity (MIC); format: cell-based; settings: Escherichia coli; gram-negative (E. coli)
[2] = In vitro glutathione assay (LC-MS); format: physicochemical; settings: 100 μM compound, 5 mM glutathione, PBS, 37° C.
Method: To an eppendorf tube added, 245 μL of 1×PBS, 5 μL of 10 mM DMSO stock of ferroptocide or P23 and 250 μL of reduced GSH (5 mM final concentration). Reactions were vortexed briefly and incubated at 37° C. Adduct formation was monitored at the indicated time points (0, 0.5, 1, 2, 3, 24 hr) by mixing an aliquot of 50 μL from the reaction mixture with 50 μL of MeOH before LC/MS analysis.

[3] = test system: ES-2 cells; assay: Confocal microscopy competition with fluorescent analogue P30; format: cell-based; settings: pretreatment at 3× IC50 for 30 min, then P30 (5 μM)
Method: ES-2 cells (3×10^5 cell) were attached overnight in […] petri dish plates containing 2 ml of RPMI media. Prior to imaging, cells were stained for 30 min with Mitotracker Red CMXRoss at 100 nM final concentration. Upon media replacement, samples were pre-treated with 3× IC50 of ferroptocide, P27, L1, QQ1 for 30 min followed by treatment with 5 μM P30 for an additional 30 min and a PBS wash. PBS or phenol free media was added to each dish and cells were stained with Hoechst 33342 (1 μg/mL).

[4] = test system: HCT 116 cells; assay: Speed of cell death, AV/PI flow cytometry; format: cell-based
Method: (§1) ES-2, HCT 116, Mia PaCa-2, A549, and 4T1 cells (1×10^5 cells/mL) were plated overnight in 12 well plates, prior to addition of compounds. For protection studies, samples were pre-treated with each protecting agent such as 25 μM Q-VD-OPh, 250 μM trolox, 2 μM ferrostatin-1, 5 mM NAC-1 (neutralized pH), or 100 μM deferoxamine (DFO) for two hours or 1 hr (NAC-1) before compound addition. Cells were incubated for the appropriate times and harvested for flow cytometry analysis. Cell pellets were resuspended in binding buffer (10 mM HEPES, pH 7.4, 140 mM NaCl, 2.5 mM CaCl2) containing 2 μg/mL propidium iodide and 5 μL/mL Annexin V-FITC conjugate antibody and analyzed for cell viability after gating for forward and side scattering. Ten thousand events were collected per sample in BD LSR II Flow Cytometer (BD Bioscience) and FCS express V6, De Novo software was used to perform experimental analysis.

[5] = test system: A549 cells; assay: Speed of cell death, AV/PI flow cytometry; format: cell-based; settings: each at 10 μM, A549 (K-RAS mutant)
Method: as §1

[6] = test system: ES-2 cells; assay: Speed of cell death, AV/PI flow cytometry; format: cell-based; settings: 10 μM, ES-2, AV/PI
Method: as §1

[7] = test system: Mia PaCa-2 cells; assay: Speed of cell death, AV/PI flow cytometry; format: cell-based; settings: 10 μM, Mia PaCa-2, AV/PI
Method: as §1

[8] = target: T1, GPX4 (Homo sapiens, UniProt P36969); assay: GPX4 LC-MS based activity assay (PCOOH); format: cell-based; settings: 10 μM, 1 hr, ES-2 cells
T1 construct: endogenous in cells; host or cells: ES-2 cells
Method: 1 million ES-2 cells/well, 6 well plate were allowed to attach overnight and then treated with DMSO, 10 μM of each compound: ferroptocide, raptinal, and RSL3 for 1 hr. GPX4 enzymatic activity assay was performed with a GPX4 specific substrate, phosphatidylcholine hydroperoxide (PC—OOH) as described previously with minor modifications (Cell 156, 317-331, (2014)). PCOOH was prepared as reported by Roveri and coworkers (Enzymol. Vol. 233 202-212 (Academic Press, 1994)) but using soybean lipoxidase type I-B (L7395, Milipore Sigma). Cells were washed with PBS and lysed by liquid nitrogen freeze-thaw method in the assay buffer (137 mM NaCl, 2.7 mM KCl, 8 mM Na2HPO4, 2 mM KH2PO4, 1 mM EDTA, 0.1 mM DFO; pH 7.4). Cell lysates were cleared by centrifugation at 14,000 rpm for 10 min at 4° C. Bradford assay was used to determine protein concentration; 200 μg of protein or assay buffer (PCOOH control sample) was mixed with 10 μL PC—OOH in methanol, 5 mM reduced glutathione, and assay buffer to a final reaction volume of 500 μL. The reaction mixture was incubated at 37° C. for 15 mins and extracted with 250 μL chloroform:methanol (2:1) solution. The lipid extract was evaporated under nitrogen and re-dissolved in 100% methanol before injecting into the LC-MS/MS instrument for PCOOH detection.

[9] = test system: non-cancerous breast (MCF10A) cells; assay: Cell viability IC50 in non-cancerous cells; format: cell-based; settings: Homo sapiens, MCF-10A
Method: (§2) To a 384-well plate, 40 μL of 1.25× compound dilution or 1.25% DMSO-containing media was added (final volume of 1% DMSO). Concentrations of compounds tested were 100 μM to 100 nM. On each plate at least 3 technical replicates per compound were performed. Next, 10 μL of a 100,000 cells/mL suspension was added to each well, yielding a final concentration of 1,000 cells/well. To three wells in column 2 was added 1 μL of 10 mM doxorubicin (final concentration of 200 μM) as positive control of cell death. Plates were sealed with gas-permeable seals and incubated at 37° C. for 72 h. At that time, 5 μL of Alamar blue (440 μM resazurin in sterile PBS) was added and plates were incubated for 3-4 hours. Fluorescence was read on a Molecular Devices SpectraMax 3 (excitation=555 nm, emission=585 nm, emission cutoff=570 nm). Wells were normalized to the average of untreated wells (0% cell death). The data were plotted as compound concentration versus percent dead cells and fitted to a logistic-dose response curve using OriginPro 2015 (OriginLab, Northampton, Mass.). The data were generated in triplicate, and IC50 values are reported as the average of three separate experiments along with standard error of the mean.

[10] = test system: human skin fibroblast (HFF-1) cells; assay: Cell viability IC50 in non-cancerous cells; format: cell-based
Method: as §2

T1 sequence (P36969 whole entry): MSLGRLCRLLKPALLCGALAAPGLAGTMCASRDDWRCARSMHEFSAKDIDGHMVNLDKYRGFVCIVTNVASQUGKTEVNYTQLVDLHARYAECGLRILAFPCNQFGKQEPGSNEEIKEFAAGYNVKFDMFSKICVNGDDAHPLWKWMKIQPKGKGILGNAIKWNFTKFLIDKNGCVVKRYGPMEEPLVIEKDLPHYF

For `C[C@@H]1CC[C@@]23C[C@H](O)C(=O)[C@@]2(O)[C@]1(C)[C@H](OC(=O)CCl)C[C@@H](C1=CCn2c(=O)n(-c4ccccc4)c(=O)n2C1)[C@@H]3C` [Compound P18, ferroptocide], the MIC [1] was greater than 64 µg/mL, the “reactivity with excess glutathione (in words)” value [2] was “reacts slowly” and the “Compound remaining (%)” value ([2]; 0.5 hr) was 95.1%. The “GSH-Ferroptocide adduct (%)” value ([2]; 0.5 hr) was 4.9%, the “Compound remaining (%)” value ([2]; 1 hr) was 81.8% and the “GSH-Ferroptocide adduct (%)” value ([2]; 1 hr) was 18.2%. For the same molecule, the “GSH-Ferroptocide adduct (%)” value ([2]; 2 hr) was 33.2%, the “Compound remaining (%)” value ([2]; 2 hr, listed as Ferroptocide) was 66.8% and the “Compound remaining (%)” value ([2]; 2 hr, listed as ferroptocide) was 67%. For the same molecule, the “Compound remaining (%)” value ([2]; 3 hr) was 61.9%, the “GSH-Ferroptocide adduct (%)” value ([2]; 3 hr) was 38.1% and the “Compound remaining (%)” value ([2]; 24 hr) was 27.5%. The “GSH-Ferroptocide adduct (%)” value ([2]; 24 hr) was 72.5%, the “competition of P30 staining” value [3] was “competed away” and the “time to 50% cell death” value ([4]; 10 μM, HCT 116, AV/PI) was 7 h. The “cell death versus erastin and RSL3” value ([4]; each at 10 μM, HCT 116 (K-RAS mutant)) was “inducing more quantitative cell death than the other tool compounds”, the “cell death versus erastin and RSL3” value [5] was “inducing more quantitative cell death than the other tool compounds” and the “time to 50% cell death” value [6] was 1 h. For the same molecule, the “time to 50% cell death” value ([7]; listed as Ferroptocide) was 2 h, the “time to 50% cell death” value ([7]; listed as ferroptocide) was 1.5 h and the GPX4 inhibition [8] was “did not result in GPX4 inhibition; also recorded: does not cause direct GPX4 inhibition”. It also gave a pIC50 [9] of 5.51 and a pIC50 [10] of 5.39.
